# How the values were obtained:
# YES = biological target: T1, YES (Homo sapiens, UniProt P07947); experiment: Upstate kinase Profiler counter-screening; type: biochemical; conditions: at 1 μM
# T1 construct: purchased Upstate
# CDK7/cyclinH/MAT1 = biological target: T2, CDK7/cyclinH/MAT1 (Homo sapiens, UniProt P50613); experiment: Upstate kinase Profiler counter-screening; type: biochemical
# T2 construct: purchased Upstate
# xenograft models = conditions: plasma trough concentrations of less than 25 nM for less than two hours
# [1] = 40 mg/kg once per day for five days; blood on days 1 and 7 following the last dose
# Experimental: The formulation was administered to BALB/c mice at a dosage level of 40 mg/kg once per day for five days. Blood samples were obtained on days 1 and 7 following the last dose and analyzed on an Advia 120 hematology analyzer immediately after diluting 1:5 in PBS. A full differential blood count was performed, including red blood cell analysis (including reticulocyte, variant count, and hemoglobin analyses), white blood cell analysis (including differential lineage counts and peroxidase staining) and a thrombopoiesis analysis.
# PKCα = biological target: T3, PKCα (Homo sapiens, UniProt P17252); experiment: Upstate kinase Profiler counter-screening; type: biochemical
# T3 construct: purchased Upstate
# phospho-Rb Ser 807/811 = conditions: single dose IP 40 mg/kg; samples post dose vs T0
# Excerpt: Skin samples were harvested at various intervals following dosing and compared with biopsies harvested prior to dosing (T0). Biopsied samples were fixed overnight in 10% formalin.
# Lyn = biological target: T4, Lyn (Homo sapiens, UniProt P07948); experiment: Upstate kinase Profiler counter-screening; type: biochemical
# T4 construct: purchased Upstate
# T4 sequence (P07948 whole entry, species assumed): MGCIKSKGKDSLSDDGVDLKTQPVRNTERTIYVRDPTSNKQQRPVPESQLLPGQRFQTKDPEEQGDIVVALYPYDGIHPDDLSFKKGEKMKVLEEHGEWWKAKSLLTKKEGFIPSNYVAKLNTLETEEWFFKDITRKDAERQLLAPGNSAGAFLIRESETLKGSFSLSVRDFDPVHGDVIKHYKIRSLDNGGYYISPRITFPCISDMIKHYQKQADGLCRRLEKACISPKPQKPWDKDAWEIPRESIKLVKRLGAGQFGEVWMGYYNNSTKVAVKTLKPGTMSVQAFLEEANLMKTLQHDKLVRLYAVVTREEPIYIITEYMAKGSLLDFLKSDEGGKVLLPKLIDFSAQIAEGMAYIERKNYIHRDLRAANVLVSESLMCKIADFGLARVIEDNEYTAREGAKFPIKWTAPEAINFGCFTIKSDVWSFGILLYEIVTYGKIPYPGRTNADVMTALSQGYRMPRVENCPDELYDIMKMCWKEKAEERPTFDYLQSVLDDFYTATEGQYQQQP
# [2] = test system: A2780 ovarian cancer cell cultures; conditions: 2 hours of exposure, 6 hour washout; no increase up to 5.0 micromolar
# Experimental: After the 6 hour washout period, cell extracts were prepared and evaluated by fluorometric assay for activated caspases (RFLU).
# H82 (SCLC) = experiment: xenograft tumor model
# T2 sequence (P50613 whole entry, species assumed): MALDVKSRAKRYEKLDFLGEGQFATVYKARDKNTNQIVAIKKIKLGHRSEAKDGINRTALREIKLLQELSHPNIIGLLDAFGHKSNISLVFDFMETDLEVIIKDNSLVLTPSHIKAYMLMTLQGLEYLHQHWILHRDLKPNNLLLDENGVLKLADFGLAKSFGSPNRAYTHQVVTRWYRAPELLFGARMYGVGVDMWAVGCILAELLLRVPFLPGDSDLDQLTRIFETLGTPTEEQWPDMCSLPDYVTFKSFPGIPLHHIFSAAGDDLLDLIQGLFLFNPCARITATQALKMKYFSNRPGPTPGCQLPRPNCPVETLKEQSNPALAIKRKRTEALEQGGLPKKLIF
# T2 sequence (P51946 whole entry partner, species assumed): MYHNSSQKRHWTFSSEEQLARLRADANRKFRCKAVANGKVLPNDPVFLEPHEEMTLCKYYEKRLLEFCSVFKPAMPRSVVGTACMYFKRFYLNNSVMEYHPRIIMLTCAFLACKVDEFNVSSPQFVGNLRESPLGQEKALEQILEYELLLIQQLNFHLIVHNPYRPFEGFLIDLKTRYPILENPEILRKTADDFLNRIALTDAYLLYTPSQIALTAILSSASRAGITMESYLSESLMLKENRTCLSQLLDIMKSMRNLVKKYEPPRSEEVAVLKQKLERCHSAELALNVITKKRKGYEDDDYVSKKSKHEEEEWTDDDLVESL
# T2 sequence (P51948 whole entry partner, species assumed): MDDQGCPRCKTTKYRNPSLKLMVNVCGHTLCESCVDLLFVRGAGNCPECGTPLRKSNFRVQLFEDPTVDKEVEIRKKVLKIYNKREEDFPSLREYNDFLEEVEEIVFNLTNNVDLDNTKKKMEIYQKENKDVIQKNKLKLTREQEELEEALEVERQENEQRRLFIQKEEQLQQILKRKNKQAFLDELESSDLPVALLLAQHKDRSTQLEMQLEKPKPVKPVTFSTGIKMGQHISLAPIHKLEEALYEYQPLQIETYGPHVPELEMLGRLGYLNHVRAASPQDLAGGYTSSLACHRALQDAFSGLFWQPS
# T1 sequence (P07947 whole entry, species assumed): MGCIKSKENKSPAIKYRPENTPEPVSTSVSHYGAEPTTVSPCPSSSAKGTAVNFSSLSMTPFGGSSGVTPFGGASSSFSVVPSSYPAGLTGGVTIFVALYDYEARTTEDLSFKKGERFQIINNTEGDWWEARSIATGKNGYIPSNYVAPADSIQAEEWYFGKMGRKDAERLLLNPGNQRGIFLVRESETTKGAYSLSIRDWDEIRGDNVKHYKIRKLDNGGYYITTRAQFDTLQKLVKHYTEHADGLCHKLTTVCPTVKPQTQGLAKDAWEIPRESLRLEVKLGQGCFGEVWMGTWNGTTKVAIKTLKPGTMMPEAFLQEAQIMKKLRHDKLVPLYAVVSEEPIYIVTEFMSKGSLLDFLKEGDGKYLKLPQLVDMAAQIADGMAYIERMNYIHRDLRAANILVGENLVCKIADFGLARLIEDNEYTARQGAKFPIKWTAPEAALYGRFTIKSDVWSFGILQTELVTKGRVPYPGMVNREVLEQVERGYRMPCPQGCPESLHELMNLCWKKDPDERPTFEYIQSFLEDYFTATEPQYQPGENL
structure (smiles),measurement,setting,value
CCc1cnn2c(NCc3ccc[n+]([O-])c3)cc(N3CCCC[C@H]3CCO)nc12 [Formula II],% remaining activity,YES,92%
same,% remaining activity,CDK7/cyclinH/MAT1; at 1 μM,7%
same,% remaining activity,CDK7/cyclinH/MAT1; at 10 μM,4%
same,effect on xenograft tumors,xenograft models,tumor growth inhibition or regression
same,effect on platelets or red blood cells,[1],No effect
same,% remaining activity,PKCα; at 1 μM,96%
same,% remaining activity,PKCα; at 10 μM,94%
same,phospho-Rb in proliferating epithelial cells of basal epithelium and hair follicles,phospho-Rb Ser 807/811,rapid and sustained suppression of phospho-Rb
same,% remaining activity,Lyn; at 1 μM,108%
same,% remaining activity,Lyn; at 10 μM,110%
same,exposure level at which caspase activity is maximal,[2],0.05 µM
same,% inhibition observed at dosage of 5 mg/kg Formula II,H82 (SCLC); first Formula II column,56%
same,% inhibition observed at dosage of 5 mg/kg Formula II,H82 (SCLC); second Formula II column,65%
